Laboratory results as given in patent publication US20090286839A1, “PHYTONUTRIENT COMPOSITIONS FROM MUSHROOMS OR FILAMENTOUS FUNGI AND METHODS OF USE” (priority 2006, published 2009).

System: cortical neurons
Test: 2% Low Serum Assay, neuronal viability by MTT method
Type: cell-based, chicken
Settings: for viability, mean optical density: addition at 1DIV, n=8; for viability, mean optical density / maximum neuronal viability (% of untreated control) / viability, mean in % (control is 100%): 8 days; for maximum neuronal viability (% of untreated control) / viability, mean in % (control is 100%): Lohman or Hisex Brown, chicken
Protocol: Lohman or Hisex Brown chicken one-day-old fertilized eggs were obtained and stored in a lab under appropriate conditions of 12° C. and 80% humidity. At embryonic day 0 eggs were transferred into a breeding incubatore and stored under permanent turning until embryonic day 9 at 37.8° C. and 55% humidity. For isolation of neurons 4 to 6 chicken embryos were used per experiment. Neurons were plated out and nerve cells maintained in a nutrition medium at 37° C., 97% humidity, and 5% CO2.
Test Item (T.I.) and Reference Item (R.I.) were administered at the start of the experiments for 8 days. Neurons were maintained in the same medium without change or addition of media until the end of the experiments. During the whole culture period of 8 days cells stay in an incubator at 37° C., 97% humidity, and 5% CO2.
From T.I.1, L-Ergothioneine a 128 mM solution was prepared in medium and directly added to the cells at the start of the experiments for a total of 8 days. […] The pellet was discarded and only from the supernatant 1.25 μl up to 160 μl/ml medium was administered. R.I.2. the neurotrophic standard NTS is a ready to use injection solution and was applied in concentrations from 1.25 μl up ro 160 μl/ml medium. The stock-solution for R.I.3, Trolox, was made in a concentration of 2 mM in PBS and the appropriate concentrations added to the cells at day 1.
To the isolated nerve cell T.I.1 was added in a dose range of 0.5, 1, 2, 4, 8, 16, 32, 64 mM. The supernatant of R.I.1 and the ready to use injection solution of R.I.2 were applied in the concentration 1.25, 2.5, 5, 10, 20, 40, 80, 160 μl/ml medium. R.I.3 was tested in the concentrations of 1, 2, 4, 8, 16, 31.25, 62.5, 125 μM. Experiments were performed at two different days, whereby on each day two identical microplates were prepared with two to four wells per T.I. or R.I. (n=8). In this 2% cell stress assay substances were administered at start of the experiment (day 1 in vitro) for the whole experimental period that means for eight days in vitro.
Neuronal viability of cultures was determined with the MTT-assay using a plate-reader (570 nm) as described in SOP MET009. The MTT-assay is a sensitive assay measuring the mitochondrial dehydrogenase activity in viable cells only. It is performed according to the method described by Mosmann, J. Immunol. Meth., 1983, 55-63. This assay is based on the reduction of yellow MTT (3-(4,5-dimethylthiazol-2-yl)-2,5,diphenyl tetrazolium bromide), to dark blue formazan crystals by mitochondrial dehydrogenases (succinate dehydrogenase). Since this reaction is catalyzed in living cells only the assay can be used for the quantification of cell viability.
For the determination of cell viability MTT solution was added to each well in a final concentration of 0.5 mg/ml. After 2 hours the MTT containing medium was aspired. Cells were lysed with 3% SDS, formazan crystals dissolved in isopropanol/HCI. To estimate optical density a plate reader (Anthos HT II) was used at wavelength 570 nm. Neuronal viability is expressed as optical densities (ODs).

[1] = Gallus gallus, Cortical neurone, 192 h, read-out: viability, mean in % (control is 100%)

COc1c(O)cc2oc3cc(O)c(CC=C(C)C)c(O)c3c(=O)c2c1CC=C(C)C [Mangostin]
viability, mean optical density (1.25 μl/ml): 0.051 OD
viability, mean optical density (2.5 μl/ml): 0.052 OD
viability, mean optical density (5 μl/ml): 0.053 OD
viability, mean optical density (10 μl/ml): 0.076 OD
viability, mean optical density (20 μl/ml): 0.064 OD
viability, mean optical density (40 μl/ml): 0.057 OD
viability, mean optical density (80 μl/ml): 0.059 OD
viability, mean optical density (160 μl/ml): 0.065 OD
maximum neuronal viability (% of untreated control): 155%
viability, mean in % (control is 100%) (1.25 μl/ml): 93.86%
viability, mean in % (control is 100%) (2.5 μl/ml): 95.97%
viability, mean in % (control is 100%) (5 μl/ml): 98.32%
viability, mean in % (control is 100%) (10 μl/ml): 142.18%
viability, mean in % (control is 100%) (20 μl/ml): 155.61%
viability, mean in % (control is 100%) (80 μl/ml): 109.66%
viability, mean in % (control is 100%) (160 μl/ml): 120.33%

Cc1c(C)c2c(c(C)c1O)CCC(C)(C(=O)O)O2 (stereo not drawn) [Trolox, 6-Hydroxy-2,5,7,8-tetramethylchroman2-carboxylic acid]
viability, mean optical density (1 μM): 0.052 OD
viability, mean optical density (2 μM): 0.056 OD
viability, mean optical density (4 μM): 0.058 OD
viability, mean optical density (8 μM): 0.076 OD
viability, mean optical density (16 μM): 0.180 OD
viability, mean optical density (31.25 μM): 0.297 OD
viability, mean optical density (62.5 μM): 0.338 OD
viability, mean optical density (125 μM): 0.262 OD
viability at 1 µM [1]: 97.8%
viability at 2 µM [1]: 102%
viability at 4 µM [1]: 107%
viability at 8 µM [1]: 140%
viability at 16 µM [1]: 331%
viability at 31.25 µM [1]: 546%
viability at 62.5 µM [1]: 620%
viability at 125 µM [1]: 482%
maximum neuronal viability (% of untreated control): 620%
